Measurements: PMC8459971, “Evaluation of the hepatotoxicity of the novel GPR40 (FFAR1) agonist CPL207280 in the rat and monkey” (PLoS ONE, 2021)
Values joined by “and” are separate entries in the source; they are usually repeats but may differ in a detail not shown here. Identical values can stand only once. Like-named read-outs stand apart in the source and are kept apart here. Marks after values point to notes of the source that are not given here.

What was measured:
[1] = Stability in cryopreserved hepatocytes, rat; assay type: in vitro ADME; conditions: for Compound Remaining (% of 0 min): Hepatocyte Stability Rat, single replicates
Protocol: The final incubation volume was 500 μL. Two control compounds (verapamil and donepezil) were included for each microsomal species, along with the appropriate vehicle control. The reactions were terminated by transferring 50 μL of incubate to 100 μL methanol containing an internal standard (metoprolol) at appropriate time points (0, 10, 20, 40, 60, and 120 min for the test compound and 0, 5, 10, 20, 40, and 60 min for the control compounds). The termination plates were centrifuged at 4000 x g at 4°C for 30 min to precipitate the protein. The supernatants were then collected for analysis, and LC-MS/MS was used for detection purposes. The system consisted of an Acquity™ Binary Solvent Manager, Acquity™ 4-position heated column manager, 2777 Ultra High Pressure Autosampler, and a Xevo-TQ MS triple quadrupole mass spectrometer (Waters Ltd., Herts, UK). This process was carried out twice.

[2] = Metabolite profiling, monkey hepatocytes; assay type: in vitro ADME; conditions: 10 μM CPL207280, 60 min, ND = not detected
Protocol: Suspensions of cryopreserved human, rat, and monkey hepatocytes were pooled from a minimum of three individuals. All cryopreserved hepatocytes were purchased from a commercial supplier. […] The cell density was 0.5 ×10^6 viable cells/mL. The final DMSO concentration during the incubation was 0.25%. Control incubations were performed in lysed cells to reveal any non-enzymatic degradation. Two control compounds were identified in each species. Samples (50 μL) were removed from the incubation mixture at 0, 10, 20, 40, 60, and 120 min and added to methanol containing an internal standard (100 μL) to stop the reaction. The samples were centrifuged (4000 x g at 4°C for 30 min) and the supernatants at each time point were pooled for analysis by LC MS/MS using Cyprotex generic methods. Following hepatocyte stability assays, the samples were utilized for metabolite profiling. […] Metabolites were characterized using a mass spectrometer comprising Waters Xevo QT of G2-S, Acquity Binary Solvent Manager, Acquity Column Manager, and 2777 Autosampler.

[3] = Repeat-dose study in diabetic ZDF rats, serum ALT and AST; assay type: in vivo, rat; conditions: 15 and 45 mg/kg/day, 42 days
Excerpt: Male ZDF rats (n = 8) and ZL rats (n = 8) were aged 9 weeks and were housed 2–3 per cage within a small animal facility in accordance with the guidelines approved by the Association for Assessment and Accreditation of Laboratory Animal Care. […] All animals had ad libitum access to water during the entire study period. The animals were fed a diet of Purina Rodent LabDiet 5C08, equivalent to LabDiet 5008. Treatment-grouped rats (N = 8) underwent oral gavage with the test compound or vehicle at 10 mL/kg for 6 weeks. For fasting blood levels of ALT and AST after overnight fasting, blood was collected from the jugular vein or through a cardiac puncture (on the day of euthanasia, the last day of the study). Blood was collected in AXYGEN microtubes (MCT-150-C) for clinical blood chemistry measurements. Next, the sample was allowed to clot for a minimum of 30 min at room temperature and then centrifuged at 4°C and 4000 x g for 10 min. The resultant serum was transferred into three pre-labeled AXYGEN microtubes for blood chemistry analysis using the ADVIA 2400 chemistry system. Rats were euthanized by overdose of CO2 followed by decapitation.

[4] = Repeat-dose study in monkeys, pharmacokinetics (14 and 56 days); conditions: monkey; for AUC: exposure - AUC
[5] = phase III studies, within six months; cited from earlier work
NTCP = target: T1, NTCP (Homo sapiens, UniProt Q14973); conditions: read-out: Inhibition of NTCP, previously reported IC50; cited from earlier work
T1 construct: expressed in transfected cells; host or cells: HEK cells
T1 sequence (Q14973 1-349): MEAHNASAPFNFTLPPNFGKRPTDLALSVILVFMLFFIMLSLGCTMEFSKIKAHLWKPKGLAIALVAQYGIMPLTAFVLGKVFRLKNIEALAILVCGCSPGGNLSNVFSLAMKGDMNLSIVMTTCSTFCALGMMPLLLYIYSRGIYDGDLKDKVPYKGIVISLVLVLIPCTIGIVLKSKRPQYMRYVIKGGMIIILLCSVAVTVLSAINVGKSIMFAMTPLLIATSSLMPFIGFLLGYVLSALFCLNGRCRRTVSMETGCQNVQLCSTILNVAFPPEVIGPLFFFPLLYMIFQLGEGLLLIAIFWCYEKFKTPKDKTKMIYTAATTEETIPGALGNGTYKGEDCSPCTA

[6] = cited from earlier work; for AUC24h (Mean) / Cmax (Mean): rat; for exposure in plasma (AUC): rats
[7] = 600 mg/kg for 14 days; cited from earlier work
BSEP = BSEP (Homo sapiens, UniProt O95342); assay: biochemical
BSEP, sequence (O95342 whole entry): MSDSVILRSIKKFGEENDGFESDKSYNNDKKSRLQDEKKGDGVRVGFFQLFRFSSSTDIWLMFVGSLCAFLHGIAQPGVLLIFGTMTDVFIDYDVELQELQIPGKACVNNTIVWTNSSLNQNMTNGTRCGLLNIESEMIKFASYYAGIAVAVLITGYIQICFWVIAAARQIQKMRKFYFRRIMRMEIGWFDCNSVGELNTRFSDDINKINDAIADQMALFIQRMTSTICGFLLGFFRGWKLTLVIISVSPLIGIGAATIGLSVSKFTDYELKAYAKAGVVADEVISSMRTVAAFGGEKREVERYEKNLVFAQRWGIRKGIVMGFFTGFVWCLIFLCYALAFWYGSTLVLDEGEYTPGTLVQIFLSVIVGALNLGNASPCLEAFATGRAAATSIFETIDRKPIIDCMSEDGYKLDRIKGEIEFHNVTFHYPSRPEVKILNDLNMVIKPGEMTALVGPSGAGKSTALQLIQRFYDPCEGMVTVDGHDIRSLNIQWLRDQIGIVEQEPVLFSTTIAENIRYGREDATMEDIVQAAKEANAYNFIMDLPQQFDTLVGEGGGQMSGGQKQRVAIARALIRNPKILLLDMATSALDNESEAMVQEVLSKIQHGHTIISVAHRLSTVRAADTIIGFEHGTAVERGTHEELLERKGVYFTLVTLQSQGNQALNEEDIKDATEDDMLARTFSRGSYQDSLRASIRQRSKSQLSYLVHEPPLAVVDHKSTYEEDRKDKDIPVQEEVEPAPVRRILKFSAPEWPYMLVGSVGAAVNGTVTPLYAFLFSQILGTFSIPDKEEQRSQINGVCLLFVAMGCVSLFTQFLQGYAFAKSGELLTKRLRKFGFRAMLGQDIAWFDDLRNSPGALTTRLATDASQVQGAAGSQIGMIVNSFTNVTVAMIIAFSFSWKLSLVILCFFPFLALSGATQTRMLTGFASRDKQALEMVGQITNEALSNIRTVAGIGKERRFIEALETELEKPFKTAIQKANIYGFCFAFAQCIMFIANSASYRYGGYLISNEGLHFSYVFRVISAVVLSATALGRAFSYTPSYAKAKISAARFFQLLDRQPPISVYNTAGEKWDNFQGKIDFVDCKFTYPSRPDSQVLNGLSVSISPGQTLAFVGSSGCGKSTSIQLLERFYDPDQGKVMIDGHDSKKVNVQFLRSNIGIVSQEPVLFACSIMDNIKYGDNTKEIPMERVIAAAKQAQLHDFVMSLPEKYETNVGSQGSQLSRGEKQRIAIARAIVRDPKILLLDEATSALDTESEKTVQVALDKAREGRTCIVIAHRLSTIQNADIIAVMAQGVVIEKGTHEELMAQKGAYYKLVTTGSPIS

[8] = cited from earlier work
[9] = cryopreserved hepatocytes (suspension), Rat (Sprague Dawley) hepatocytes, mean n = 2
[10] = dose 50 mg/kg, Day 1, individual animals, 50 mg/kg
[11] = dose 50 mg/kg, Day 14, individual animals, 50 mg/kg
[12] = dose 100 mg/kg, Day 1, individual animals, 100 mg/kg
[13] = dose 100 mg/kg, Day 14, individual animals, 100 mg/kg
[14] = dose 150 mg/kg, Day 1, individual animals, 150 mg/kg
[15] = dose 150 mg/kg, Day 56, individual animals, 150 mg/kg
[16] = dose 200 mg/kg, Day 1, individual animals, 200 mg/kg
[17] = dose 200 mg/kg, Day 14, individual animals, 200 mg/kg
[18] = 14-day toxicology study in rats

## CC#C[C@@H](CC(=O)O)c1ccc(OCC(C)=C(C)C)cc1 [CPL207280]
[1]; 0 min
  Compound Remaining (% of 0 min): 100 % of 0 min
[1]; 10 min
  Compound Remaining (% of 0 min): 101 % of 0 min and 81.5 % of 0 min
[1]; 20 min
  Compound Remaining (% of 0 min): 79.0 % of 0 min and 77.8 % of 0 min
[1]; 40 min
  Compound Remaining (% of 0 min): 77.7 % of 0 min and 66.7 % of 0 min
[1]; 60 min
  Compound Remaining (% of 0 min): 72.8 % of 0 min and 73.3 % of 0 min
[1]; 120 min
  Compound Remaining (% of 0 min): 65.3 % of 0 min and 56.0 % of 0 min
[1]; [9]
  half-life at 3 μM: 3.1 h
  microsomal CLint at 3 μM: 7.51 µL/min/mg
[2]
  monkey % of parent at 60 min: 7.25%
[3]
  ALT and AST levels vs vehicle-treated ZDF group: failed to alter the ALT and AST levels
[4]; both, Cynomolgus, plasma, po, 100 mg/kg, dose 100 mg/kg, Day 1, individual animals
  AUC: 334 µg·h/mL
[4]; both, Cynomolgus, plasma, po, 100 mg/kg, dose 100 mg/kg, Day 14, individual animals
  AUC: 552 µg·h/mL
[4]; both, cynomolgus, plasma, po, 50 mg/kg, Cmax, dose 50 mg/kg, Day 1, individual animals
  Cmax: 38.5 µg/mL
[4]; both, cynomolgus, plasma, po, 50 mg/kg, Cmax, dose 50 mg/kg, Day 14, individual animals
  Cmax: 59.8 µg/mL
[4]; both, cynomolgus, plasma, po, 200 mg/kg, dose 200 mg/kg, Day 1, individual animals
  AUC: 794 µg·h/mL
[4]; both, cynomolgus, plasma, po, 200 mg/kg, dose 200 mg/kg, Day 14, individual animals
  AUC: 919 µg·h/mL
[4]; both, plasma, po, 200 mg/kg, Cmax, dose 200 mg/kg, Day 1, individual animals
  Cmax: 258 µg/mL
[4]; [10]
  Cmax: 54.2432 µg/mL and 70.1198 µg/mL and 73.0824 µg/mL
  exposure - AUC: 85.565 µg·h/mL and 262.448 µg·h/mL and 140.708 µg·h/mL and 87.498 µg·h/mL and 100.461 µg·h/mL and 109.347 µg·h/mL and 254.256 µg·h/mL and 110.743 µg·h/mL and 146.423 µg·h/mL and 105.958 µg·h/mL and 142.73 µg·h/mL and 220.718 µg·h/mL
[4]; [11]
  Cmax: 77.3656 µg/mL and 85.376 µg/mL and 71.8017 µg/mL
  exposure - AUC: 101.909 µg·h/mL and 132.812 µg·h/mL and 431.268 µg·h/mL and 124.571 µg·h/mL
[4]; dose 50 mg/kg, Day 56, individual animals, 50 mg/kg
  exposure - AUC: 150.303 µg·h/mL and 89.075 µg·h/mL and 182.055 µg·h/mL and 206.125 µg·h/mL and 124.755 µg·h/mL and 213.673 µg·h/mL and 113.523 µg·h/mL and 83.328 µg·h/mL
[4]; [12]
  Cmax: 47.7304 µg/mL and 196.843 µg/mL and 120.978 µg/mL and 122.802 µg/mL
  exposure - AUC: 385.402 µg·h/mL and 219.918 µg·h/mL and 309.18 µg·h/mL
[4]; [13]
  Cmax: 59.7137 µg/mL and 97.7733 µg/mL and 114.927 µg/mL and 30.391 µg/mL
  exposure - AUC: 540.113 µg·h/mL and 349.314 µg·h/mL and 371.77 µg·h/mL
[4]; [14]
  Cmax: 174.84 µg/mL and 194.31 µg/mL and 41.31 µg/mL and 61.81 µg/mL and 148.23 µg/mL and 203.64 µg/mL and 215.41 µg/mL and 167.94 µg/mL
  exposure - AUC: 687.155 µg·h/mL and 716.453 µg·h/mL and 299.365 µg·h/mL and 303.408 µg·h/mL and 583.353 µg·h/mL and 708.01 µg·h/mL and 517.538 µg·h/mL and 598.748 µg·h/mL
[4]; [15]
  Cmax: 206.99 µg/mL and 230.13 µg/mL and 188.65 µg/mL and 99.77 µg/mL and 256.14 µg/mL and 172.69 µg/mL and 25.09 µg/mL and 47.76 µg/mL
  exposure - AUC: 476.098 µg·h/mL and 561.835 µg·h/mL and 462.75 µg·h/mL and 833.928 µg·h/mL and 555.34 µg·h/mL and 670.743 µg·h/mL and 435.418 µg·h/mL and 360.168 µg·h/mL
[4]; [16]
  Cmax: 146.587 µg/mL and 153.261 µg/mL and 191.742 µg/mL
  exposure - AUC: 842.687 µg·h/mL and 783.604 µg·h/mL and 691.713 µg·h/mL
[4]; [17]
  Cmax: 263.213 µg/mL and 90.4785 µg/mL and 181.854 µg/mL and 224.986 µg/mL
  exposure - AUC: 610.926 µg·h/mL and 654.718 µg·h/mL and 646.623 µg·h/mL
[4]; dose 250 mg/kg, Day 1, individual animals, 250 mg/kg
  exposure - AUC: 1583.82 µg·h/mL and 721.808 µg·h/mL and 793.135 µg·h/mL and 1183 µg·h/mL and 1366.178 µg·h/mL and 895.14 µg·h/mL and 850.363 µg·h/mL and 1425.683 µg·h/mL and 1258.01 µg·h/mL and 575.98 µg·h/mL and 469.06 µg·h/mL and 783 µg·h/mL
[4]; dose 250 mg/kg, Day 56, individual animals, 250 mg/kg
  exposure - AUC: 1170.11 µg·h/mL and 1015.218 µg·h/mL and 686.383 µg·h/mL and 1887.035 µg·h/mL and 975.73 µg·h/mL and 1235.128 µg·h/mL and 1213.253 µg·h/mL and 997.608 µg·h/mL and 1100.488 µg·h/mL and 1004.075 µg·h/mL and 831.145 µg·h/mL and 1255.683 µg·h/mL

## Cc1cc(OCCCS(C)(=O)=O)cc(C)c1-c1cccc(COc2ccc3c(c2)OC[C@H]3CC(=O)O)c1 [TAK-875, fasiglifam, reference compound]
[5]
  study participants with serum ALT elevations > 3 × ULN: 2.7%
NTCP
  IC50: 4.6 µM
[6]; [18]
  effect on ALT: significantly increased ALT at doses of 200 and 600 mg/kg after seven days
  effect on TBA and T-BIL: increased TBA and T-BIL levels at a dose of 600 mg/kg
[6]; Day 1, Dose 200 mg/kg/day
  AUC24h (Mean): 1210000* ng x hr/mL
  Cmax (Mean): 296000* ng/ml
[6]; Day 1, Dose 600 mg/kg/day
  AUC24h (Mean): 2010000* ng x hr/mL
  Cmax (Mean): 465000* ng/ml
[6]; Day 14, Dose 200 mg/kg/day
  AUC24h (Mean): 3740000* ng x hr/mL
  Cmax (Mean): 271000* ng/ml
[6]; Day 14, Dose 600 mg/kg/day
  AUC24h (Mean): 6610000* ng x hr/mL
  Cmax (Mean): 383000* ng/ml
[6]; 200 mg/kg, day 1
  exposure in plasma (AUC): 1210 µg·h/mL
[6]; 200 mg/kg, day 14
  exposure in plasma (AUC): 3740 µg·h/mL
[6]; 600 mg/kg, day 1
  exposure in plasma (AUC): 2010 µg·h/mL
[6]; 600 mg/kg, day 14
  exposure in plasma (AUC): 6610 µg·h/mL
[6]; summary table
  Accumulation in rat plasma after repeat dose: Yes
  Propensity to elevate bile acids and bilirubin in plasma: Yes
[7]
  effect on ALT, TBA, T-BIL in dogs: observed in only 2 of 6 animals
BSEP
  IC50: 47.3 µM
[8]
  long exposure in humans: approximately 30 h
